Common to all, as to assay: NCI tumour cell line growth inhibition, 48 h
Experiment [1] relates to OVCAR-5 ovarian.
The subject of experiment [2] is OVCAR-8 ovarian.
In experiment [3] the test system is LOX IMVI melanoma.
The test system of experiment [4] is EKVX NSCLC.
Experiment [5] relates to MDA-MB-435.
The test system of experiment [6] is CCRF-CEM leukemia.
Experiment [7] relates to PC-3 prostate.
Experiment [8] deals with SK-MEL-28 melanoma.
The subject of experiment [9] is M14 melanoma.
The subject of experiment [10] is MDA-MB-231 breast.

These results are taken from PubChem BioAssay (NCI).

Molecules are shown by their SMILES.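 Five compound concentrations were applied to cells in 96-well plates for 48 hours; endpoints were derived by simple linear interpolation of the resulting dose-response curve. GI50 is the concentration that inhibits growth by half. TGI: total growth inhibition.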

For the compound `CN(C)c1ccc(/C=C2\N=C(c3ccccc3)N(c3cc(C(F)(F)F)ccc3Cl)C2=O)cc1`, the GI50 in experiment [1], in experiment [2], in [3], in experiment [4], in [5] and in [6] was above 100 µM in each case. In addition, the GI50 in experiment [7], in experiment [8], in experiment [9] and in experiment [10] was above 100 µM in each case. The TGI in experiment [1], in experiment [2], in [3], in experiment [4], in [5] and in experiment [6] was above 100 µM throughout. Besides, the TGI in [7], in experiment [8], in experiment [9] and in experiment [10] was above 100 µM each time.
As for `CN(C)c1nc(=NCc2ccco2)ss1`, the TGI in experiment [1] was above 55.6 µM; in experiment [2], 62.4 µM; in experiment [3] it was 38.4 µM; in experiment [4], 64.3 µM; in experiment [5] it was 42.3 µM; in experiment [6], 33.8 µM. Also, the TGI in experiment [7] is 30.5 µM; in experiment [8], 46.4 µM; in experiment [9] it was above 53.8 µM; in experiment [10], 32.2 µM.
Regarding `O=C(Nc1ccc(-n2ccc3c(NC(=O)c4ccccc4)ncnc32)cc1)c1cccc(C(F)(F)F)c1`, the GI50 in [1] was 6.18 µM; in experiment [2], 1.16 µM; in experiment [3], 0.218 µM; in experiment [4], 6.38 µM; in experiment [5], 2.16 µM; in experiment [6], 0.346 µM. Besides, the GI50 in [7] was 3.3 µM; in experiment [8], 10.6 µM; in experiment [9], 2.85 µM; in experiment [10], 2.76 µM. Further, the TGI in [1] stood at 31.7 µM; in experiment [2], 29.2 µM; in [3] it was 5.83 µM; in experiment [4] it was 22.7 µM; in experiment [5] it was 16.3 µM; in experiment [6], 25.2 µM. The TGI came out at 34 µM in experiment [7], 24.9 µM in experiment [8], 17.6 µM in experiment [9] and 23 µM in experiment [10].
Consider `C=C1C(=O)O[C@H]2[C@H]1CC/C(COC(=O)NCc1ccc(OC)cc1)=C\CC[C@@]1(C)O[C@@H]21`, for which the GI50 was 2.16 µM in experiment [1]; 1.23 µM in experiment [2]; 0.405 µM in [3]; 3.93 µM in experiment [4]; 0.805 µM in experiment [5]; 0.378 µM in experiment [6]. The GI50 in experiment [7] was 2.61 µM; in experiment [8] it was 0.726 µM; in experiment [9], 0.52 µM; in experiment [10], 1.17 µM. The TGI in experiment [1] came out at 8.53 µM; in [2], 9.27 µM; in experiment [3], 1.47 µM; in experiment [4] it was 17.4 µM; in experiment [5] it was 2.62 µM; in experiment [6] it was 2.1 µM. In addition, the TGI is 14.3 µM in experiment [7], 1.7 µM in experiment [8], 1.14 µM in experiment [9] and 3.96 µM in experiment [10].
As for `O=[N+]([O-])c1nccn1CC(O)CN1CCCCC1` (centres undefined), the TGI in [1], in experiment [2], in [3], in experiment [4], in [5] and in [6] was above 100 µM in each case. The TGI in [7], in [8], in [9] and in experiment [10] was above 100 µM each time.
With `O=C(/C=C/c1ccc(O)c(O)c1)NCc1c[nH]c2ccccc12`, the GI50 in experiment [1] was above 100 µM; in [2], 56.6 µM; in experiment [3], 60 µM; in experiment [4] it was 41.5 µM; in experiment [5], 41.9 µM; in [6], 48.4 µM. Also, the GI50 in [7] was 71.3 µM; in experiment [8] it was 58.3 µM; in experiment [9], 64.8 µM; in [10], 75.9 µM. Besides, the TGI in experiment [1], in experiment [2], in experiment [3], in experiment [4], in experiment [5] and in [6] was above 100 µM throughout. The TGI in experiment [7], in experiment [8], in experiment [9] and in experiment [10] was above 100 µM in each case.
Turning to `CC[C@@]1(OC(=O)CN)C(=O)OCc2c1cc1n(c2=O)Cc2c-1nc1cc3c(cc1c2CCl)OCO3`, the GI50 in [1] was 1.03 µM; in [2] it was below 0.0105 µM; in experiment [3] it was below 0.01 µM; in experiment [4], 1.84 µM; in [5], 0.16 µM; in [6] it was below 0.01 µM. Also, the GI50 was 0.113 µM in experiment [7], 0.474 µM in experiment [8], 0.0102 µM in [9] and 1.9 µM in experiment [10]. Besides, the TGI in experiment [1] is 13 µM; in [2], 0.354 µM; in experiment [3] it was 5.03 µM; in [4], 26.5 µM; in experiment [5], 4.15 µM; in experiment [6], above 100 µM. In addition, the TGI in experiment [7] was 21.1 µM; in [8] it was 20.5 µM; in experiment [10], above 34.3 µM.
`Cn1c(=O)c2[nH]c(SCCN3CCOCC3)nc2n(C)c1=S`: the TGI in experiment [1], in experiment [2], in experiment [3], in experiment [4], in experiment [5] and in [6] was above 100 µM each time. Further, the TGI in experiment [7], in experiment [8], in [9] and in experiment [10] was above 100 µM each time.
